According to patent US7251525B2, “Treatment of arrhythmias via inhibition of a multifunctional calcium/calmodulin-dependent protein kinase” (The Board of Trustees of the Leland Stanford Jr. University, priority 1997, dated 2007):

How the values were obtained:
CaM kinase [1] = molecular target: T1, CaM kinase (Oryctolagus cuniculus, UniProt O77708); test: In vitro CaM kinase activity in left ventricular tissue homogenate; assay type: biochemical, rabbit; conditions: LV tissue homogenate; 0-100 μmol/l
Procedure: FIG. 5. Effects of KN-93 and KN-92 on CaM kinase activity in vitro. CaM kinase activity in left ventricular tissue homogenate was assayed as described in Example 5, Experimental Methods. […] The solid line represents a fit to the KN-93 data using the Hill equation.
Left ventricular homogenate was prepared as follows: after removal of the heart, it was placed in nominally Ca^2+ free ice-cold HEPES-buffered Tyrode's solution. One to two grams of the left ventricular free wall was cut away, coarsely minced, and suspended in 5-10 ml of cold homogenization buffer (mmol/l: 20 PIPES, 1 EDTA, 1 EGTA, 2 DTT, 10 sodium pyrophosphate, and 50-100 μg/ml leupeptin) at pH 7.0. Tissue suspension was homogenized at 4° C. using 3-10 sec bursts of a Polytron with 30 sec pauses inbetween bursts. The homogenate was then centrifuged at ˜10,000×g for 20 min at 4° C. using a JA-20 rotor. The supemate was removed and used directly in the assay. Protein concentration was measured by the method of Bradford, using BSA as the standard.
(§1) Assay of CaM kinase activity was performed essentially as described by Waldmann et al. with a few modifications. […] Calcium/calmodulin-dependent phosphorylation of the autocamtide 3 substrate was then quantitated as described. Calcium/calmodulin-independent CaM kinase activity was quantitated as described above, but Ca^2+ was omitted from the assay solution. […]

isolated rabbit hearts = test: Clofilium-induced early afterdepolarizations (EADs) in isolated perfused rabbit hearts; conditions: for left ventricular developed pressure (LVDP) following clofilium: clofilium 7.5 μmole/l
Description: FIG. 1. […] Data tracings show (from top to bottom) monophasic action potentials (MAP) and left ventricular (LV) pressure. The horizontal lines to the left of the LV pressure tracings (top to bottom) indicate 100 mm Hg and 0 mm Hg levels and 850 ms for panels A and B. All experiments with isolated hearts consisted of 3 periods. A fourth period (experimental period 4) was only added in hearts with EADs. Experimental periods are labeled 1-4 (top of page for both panels A and B). Experimental period 1 measurements represent control and follow >10 min of stabilization. […] Period 3 measurements follow addition of clofilium (7.5 μmole/l) and are taken at EAD initiation or from the longest action potential duration recorded over 30 min. Multiple EADs are seen as 2 oscillations during repolarization on the MAP tracings in experimental period 3. Secondary elevations in LV pressure coinciding with EADs are also seen in the LV pressure tracing in experimental period 3. Experimental period 4 measurements follow EAD termination by addition of nifedipine (10 μmole/l) (shown above) or Cd^2+ (200-500 μmole/l) (data not shown). The horizontal bars indicate the experimental conditions for both panels A and B. (B) Experimental design for isolated rabbit hearts treated with CaM kinase inhibitor KN-93. Arrangement of data tracings is the same as in FIG. 1A (above). Experimental periods are also the same as in FIG. 1A (above) except the active CaM kinase inhibitor KN-93 (0.5 μmole/l) was added 10 min prior to period 2 measurements. […] (C) Continuous record of EAD termination by nifedipine (10 μM) in a heart paced at a cycle length of 1500 ms. Data tracings show MAP with single EADs (top) and LV pressure (bottom). The horizontal lines to the left of the LV pressure tracings indicate 50 mm Hg and 0 mm Hg pressure levels (top to bottom). EAD termination occurs prior to the first discernible decrease (i.e. >10% below baseline) in LV pressure. The vertical arrow marks the first beat of EAD termination.
New Zealand White rabbits of either gender (2.7-3.2 kg) were treated with a heparin bolus (150 U/kg IV) and killed by pentobarbital (50 mg/kg IV) overdose. Hearts were rapidly excised and placed in ice-cold Tyrode's solution for dissection of extracardiac tissue. (Tyrode's solution was composed of (mmol/l) NaCl (130.0), NaHCO3 (20.0), glucose (5.6), KCl (3.0), CaCl2 (2.0), NaH2PO4 (1.8), MgCl24H2O(0.7).) The aorta was cannulated, and perfused retrograde with Tyrode's solution. The perfusate (200 ml) was recirculated through a warming bath and filling pressure was adjusted to 20 cm of H2O. Recirculation time was ˜1 min, based on the time to decrease in left ventricular (LV) pressure following addition of ICa blockers to the recirculating perfusate. Temperature was monitored using a thermistor probe positioned in the right ventricle (RV) and maintained at 33±1° C. by a closed loop feed back system. The perfusate was vigorously bubbled with 95% O2, 5% CO2 and pH was monitored throughout the experiments and adjusted to 7.4 with LN NaOH or HCl, as appropriate. Both atria were removed and drains were placed in the RV and LV apices. An electrocardiogram (ecg) lead was sutured to the LV apex and the proximal pulmonary artery. Epicardial pacing wires were inserted into the RV free wall. Bradycardia was produced by crushing the AV node with a forceps. Epicardial pacing maintained a minimum cycle length of 1500 ms (heart rate of 40 beats/min). Pacing output was adjusted to twice diastolic threshold. In most experiments LV pressure was continuously monitored with a solid state transducer (Camino Laboratories) placed in a saline filled latex balloon. The balloon was secured with a purse string suture around the left atrial remnant and pressure was adjusted to maximize the LV developed pressure (LVDP) keeping the LV end diastolic pressure <10 mmHg. […]

[2] = molecular target: T2, L-type Ca2+ current (ICa) (Oryctolagus cuniculus, UniProt P15381); test: Whole cell voltage clamp of L-type Ca2+ current in single ventricular myocytes; assay type: cell-based, rabbit; conditions: for steady state inhibition of peak ICa: 0.5 μmol/l external application, cells dialyzed with BAPTA
T2 construct: endogenous in cells; host or cells: freshly isolated New Zealand White rabbit ventricular myocytes

protein kinase A (PKA) = conditions: cited from earlier work
protein kinase C (PKC) = conditions: cited from earlier work
CaM kinase [3] = conditions: cited from earlier work
CaM kinase [4] = molecular target: T1, CaM kinase; test: Ca2+-independent CaM kinase activity in LV tissue from isolated rabbit hearts; conditions: clofilium 7.5 μmole/l; KN-93 pretreatment 0.5 μmol/l
Procedure: FIG. 4. Percent calcium-independent CaM kinase activity in isolated rabbit hearts. Maximal (i.e. Ca^2+/calmodulin-dependent) and Ca^2+-independent CaM kinase activities were assayed from left ventricular (LV) tissue homogenates as described in Example 5, Experimental Methods. All hearts were initially isolated under control conditions. A stabilization period of ≧10 min was used for each isolated heart to ensure the absence of EADs, as indicated by monophasic action potentials (MAPs) recorded by a catheter positioned over the LV epicardium. […]
Left ventricular homogenate was prepared as follows: after removal of the heart, it was placed in nominally Ca^2+ free ice-cold HEPES-buffered Tyrode's solution. […] Protein concentration was measured by the method of Bradford, using BSA as the standard.
as §1

[5] = system: isolated rabbit ventricular myocytes; test: EAD induction in isolated rabbit ventricular myocytes in current clamp with low extracellular potassium; assay type: cell-based; conditions: cells dialyzed with peptide; for EADs induced (cells with EADs/cells): 1.0 mM extracellular potassium
Procedure: Action potentials were induced in isolated rabbit ventricular myocytes studied in current clamp with low (1.0 mM) extracellular potassium to favor EAD induction.
Action potential recording was performed in the following bath solution (mmol/L): NaCl 140.0, Glucose 10.0, HEPES 5.0, KCl 5.4, CaCl2 2.5, MgCl2 1.0; pH was adjusted to 7.4 with 10 N NaOH. The intracellular pipette solution for action potential recording contained (mmol/L): K aspartate 120.0, HEPES 10.0, EGTA 10.0, Na2ATP 5.0, MgCl2 4.0, CaCl2 3.0; pH was adjusted to 7.2 with 1N KOH. Unless otherwise noted, all chemicals were from Sigma.
Cells were stimulated at 0.1 Hz in whole cell configuration in current clamp mode with 0.1 to 1.0 nA pulses of depolarizing current (1.25×threshold) for 2-3 ms at room temperature (20°-23° C.). Action potentials were low pass filtered at 2 KHz and sampled at 2.5 KHz with a 12-bit analog to digital converter (Digidata 1200 B, Axon Instruments). A long action potential waveform was digitized and stored for application as a voltage command using pClamp 6.03.

[6] = system: L-type calcium window current; test: L-type calcium window current with an EAD-containing action potential voltage clamp wave form; assay type: cell-based, rabbit; conditions: dialysis with peptide; data not shown
isolated heart cells = test: Pacing-induced inward current (DAD-linked) in isolated heart cells, action potential voltage clamp; assay type: cell-based, rabbit; conditions: 0.5 Hz; for cells that developed inward currents: peptide 20 μmole/l dialyzed, 32° C.
Procedure: FIG. 7. CaM kinase inhibition suppresses pacing induced inward current. Isolated heart cells were paced (0.5 Hz, T=32° C.) using a prolonged action potential voltage clamp command wave form. (A) A prolonged action potential was digitized and used as a voltage clamp command waveform for current tracings below. Command membrane potential is on the ordinate and time (for panels A-C) is on the abscissa (B) Inward currents developed after completion of the command wave form in 5/6 cells dialyzed with a control peptide (SEQ ID NO: 2, 20 μmole/l) devoid of CaM kinase inhibitory activity. Cell membrane currents are referenced on the ordinate for both panels B and C.
Isolated heart cells (Experimental Methods, Example 6) were stimulated (0.5 Hz) in voltage clamp using a prolonged action potential wave form (FIG. 7A). Rapid pacing favors intracellular calcium overload. Inward currents that develop in response to rapid pacing are a marker for intracellular calcium overload and they are the basis for arrhythmogenic delayed afterdepolarizations (DADs).
Isolated cells were studied with the action potential command wave form using voltage clamp methodology (Experimental Methods, Example 6). Cells were stimulated at 0.5 Hz and 32° C. (heated stage from Warner Instruments) for up to 100 beats. Recording solutions were identical to those for action potential recording except that the calcium buffer EGTA was omitted from the intracellular solution to favor intracellular calcium overload. The presence or absence of the post-repolarization inward current was noted.

[7] = pretreatment 0.5 μmol/l, clofilium 7.5 μM

T1 sequence (O77708 2-533): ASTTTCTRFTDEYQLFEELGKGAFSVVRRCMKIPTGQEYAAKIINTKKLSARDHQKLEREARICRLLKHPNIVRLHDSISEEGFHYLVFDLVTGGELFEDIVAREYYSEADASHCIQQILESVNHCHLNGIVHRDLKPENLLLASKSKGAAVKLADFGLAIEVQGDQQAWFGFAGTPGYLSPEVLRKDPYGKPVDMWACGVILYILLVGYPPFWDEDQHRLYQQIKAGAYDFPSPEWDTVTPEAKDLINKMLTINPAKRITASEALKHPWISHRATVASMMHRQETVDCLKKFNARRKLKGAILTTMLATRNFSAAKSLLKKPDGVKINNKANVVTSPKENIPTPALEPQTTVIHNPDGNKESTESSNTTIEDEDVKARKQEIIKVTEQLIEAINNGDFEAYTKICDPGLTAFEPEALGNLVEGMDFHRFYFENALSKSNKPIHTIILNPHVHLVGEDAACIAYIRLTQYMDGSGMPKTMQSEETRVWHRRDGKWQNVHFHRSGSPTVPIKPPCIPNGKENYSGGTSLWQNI
T2 sequence (P15381 whole entry, other chains not shown): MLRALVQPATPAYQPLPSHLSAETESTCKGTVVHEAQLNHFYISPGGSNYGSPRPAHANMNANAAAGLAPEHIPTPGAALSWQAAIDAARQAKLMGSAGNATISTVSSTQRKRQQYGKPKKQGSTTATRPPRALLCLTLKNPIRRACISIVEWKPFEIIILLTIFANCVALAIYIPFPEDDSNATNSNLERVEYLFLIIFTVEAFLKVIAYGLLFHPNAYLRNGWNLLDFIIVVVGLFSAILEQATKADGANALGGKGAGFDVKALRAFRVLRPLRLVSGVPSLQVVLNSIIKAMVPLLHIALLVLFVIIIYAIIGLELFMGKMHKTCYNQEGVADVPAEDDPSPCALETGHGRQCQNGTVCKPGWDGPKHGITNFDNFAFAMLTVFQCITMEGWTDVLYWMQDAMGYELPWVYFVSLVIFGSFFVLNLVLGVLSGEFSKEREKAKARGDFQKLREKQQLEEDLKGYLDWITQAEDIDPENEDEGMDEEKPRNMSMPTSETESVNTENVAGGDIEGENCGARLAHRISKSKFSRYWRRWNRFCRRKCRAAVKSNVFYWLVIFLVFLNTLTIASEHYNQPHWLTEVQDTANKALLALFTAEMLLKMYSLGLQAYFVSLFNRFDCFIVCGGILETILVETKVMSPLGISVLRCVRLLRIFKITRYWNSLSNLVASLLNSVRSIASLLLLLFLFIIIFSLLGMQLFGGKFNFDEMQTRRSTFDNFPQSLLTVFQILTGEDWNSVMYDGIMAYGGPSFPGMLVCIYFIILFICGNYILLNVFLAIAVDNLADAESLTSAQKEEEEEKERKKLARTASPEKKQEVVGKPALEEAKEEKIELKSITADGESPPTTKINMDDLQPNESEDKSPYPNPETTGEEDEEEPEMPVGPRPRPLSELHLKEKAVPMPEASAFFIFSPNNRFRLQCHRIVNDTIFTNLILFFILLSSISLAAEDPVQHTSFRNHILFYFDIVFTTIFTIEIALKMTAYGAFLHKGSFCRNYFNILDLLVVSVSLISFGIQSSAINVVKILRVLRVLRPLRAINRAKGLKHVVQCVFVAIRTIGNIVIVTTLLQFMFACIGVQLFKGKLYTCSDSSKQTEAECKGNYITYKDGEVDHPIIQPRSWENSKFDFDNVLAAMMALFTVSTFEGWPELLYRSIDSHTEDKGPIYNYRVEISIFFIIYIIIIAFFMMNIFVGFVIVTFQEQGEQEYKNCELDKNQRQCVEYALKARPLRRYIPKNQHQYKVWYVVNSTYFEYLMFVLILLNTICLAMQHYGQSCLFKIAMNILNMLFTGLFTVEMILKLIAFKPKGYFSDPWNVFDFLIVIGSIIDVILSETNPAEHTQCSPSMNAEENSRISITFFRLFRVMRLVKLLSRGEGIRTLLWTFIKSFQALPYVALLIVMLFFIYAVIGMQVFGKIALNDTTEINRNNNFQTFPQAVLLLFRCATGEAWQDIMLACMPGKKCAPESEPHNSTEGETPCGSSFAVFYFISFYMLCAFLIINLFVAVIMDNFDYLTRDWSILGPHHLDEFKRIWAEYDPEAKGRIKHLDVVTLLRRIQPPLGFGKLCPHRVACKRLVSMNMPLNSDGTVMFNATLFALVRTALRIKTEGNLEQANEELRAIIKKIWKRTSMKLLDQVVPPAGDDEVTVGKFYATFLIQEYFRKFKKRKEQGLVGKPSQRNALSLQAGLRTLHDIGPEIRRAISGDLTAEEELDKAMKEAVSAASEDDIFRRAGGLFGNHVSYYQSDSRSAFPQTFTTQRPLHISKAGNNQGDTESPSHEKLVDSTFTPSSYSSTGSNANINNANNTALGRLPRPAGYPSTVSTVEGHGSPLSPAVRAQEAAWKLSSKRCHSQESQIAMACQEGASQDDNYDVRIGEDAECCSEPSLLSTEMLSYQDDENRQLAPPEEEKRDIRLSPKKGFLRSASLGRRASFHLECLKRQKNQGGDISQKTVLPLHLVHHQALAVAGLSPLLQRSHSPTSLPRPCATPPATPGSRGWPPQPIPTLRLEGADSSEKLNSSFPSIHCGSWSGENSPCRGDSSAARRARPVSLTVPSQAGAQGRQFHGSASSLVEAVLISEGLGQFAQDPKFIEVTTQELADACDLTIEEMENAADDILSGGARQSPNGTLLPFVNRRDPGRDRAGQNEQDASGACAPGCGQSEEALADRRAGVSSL
T2 sequence (P13806 27-960 partner limits assumed, other chains not shown): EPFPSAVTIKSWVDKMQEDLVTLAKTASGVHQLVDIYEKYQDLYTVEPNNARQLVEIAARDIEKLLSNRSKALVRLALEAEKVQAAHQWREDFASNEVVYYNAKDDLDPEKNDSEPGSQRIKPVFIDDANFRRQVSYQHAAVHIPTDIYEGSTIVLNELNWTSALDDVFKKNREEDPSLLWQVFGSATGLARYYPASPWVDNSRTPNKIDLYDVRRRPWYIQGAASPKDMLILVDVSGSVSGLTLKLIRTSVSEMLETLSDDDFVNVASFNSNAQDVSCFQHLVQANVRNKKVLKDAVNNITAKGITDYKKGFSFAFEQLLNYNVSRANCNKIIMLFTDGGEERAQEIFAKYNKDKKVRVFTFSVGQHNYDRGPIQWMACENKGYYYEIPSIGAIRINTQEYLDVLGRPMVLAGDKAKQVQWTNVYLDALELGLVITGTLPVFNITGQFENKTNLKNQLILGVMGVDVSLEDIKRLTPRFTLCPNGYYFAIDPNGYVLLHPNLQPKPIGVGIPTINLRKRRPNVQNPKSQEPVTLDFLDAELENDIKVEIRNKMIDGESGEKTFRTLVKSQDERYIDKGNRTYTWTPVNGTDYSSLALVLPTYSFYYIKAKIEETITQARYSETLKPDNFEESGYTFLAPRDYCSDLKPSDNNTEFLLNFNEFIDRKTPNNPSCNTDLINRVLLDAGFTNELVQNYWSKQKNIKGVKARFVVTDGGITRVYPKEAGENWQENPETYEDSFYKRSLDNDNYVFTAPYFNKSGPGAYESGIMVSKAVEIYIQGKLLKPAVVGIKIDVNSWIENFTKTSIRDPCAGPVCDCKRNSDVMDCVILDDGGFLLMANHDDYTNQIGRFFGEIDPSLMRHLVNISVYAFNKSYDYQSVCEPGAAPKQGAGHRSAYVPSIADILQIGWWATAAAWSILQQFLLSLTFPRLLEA
T2 sequence (P13806 961-1106 partner limits assumed, other chains not shown): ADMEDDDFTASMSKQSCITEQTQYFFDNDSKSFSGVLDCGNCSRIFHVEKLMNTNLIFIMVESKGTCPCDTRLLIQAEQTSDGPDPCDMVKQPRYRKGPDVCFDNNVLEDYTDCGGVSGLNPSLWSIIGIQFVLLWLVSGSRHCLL

COc1ccc(S(=O)(=O)Nc2ccccc2CN(C)CC=Cc2ccc(Cl)cc2)cc1 [KN-92, 2-N-(4-methoxybenzenesulfonyl)-amino-N-(4-chlorocinnamyl)N-methylbenzylamine]
inhibition of CaM kinase activity (CaM kinase [1]): did not cause appreciable inhibition
EADs in response to clofilium (hearts with EADs/hearts) (isolated rabbit hearts; [7]): 10/11
multiple EADs (hearts with multiple EADs/hearts) (isolated rabbit hearts; [7]): 7/11
left ventricular developed pressure (LVDP) following clofilium (isolated rabbit hearts; pretreatment 0.5 μmol/l): increased significantly
apparent voltage dependence of ICa activation [2]: Neither KN-92 or KN-93 shifted
steady state inhibition of peak ICa [2]: 36.2±1.9%
effects on protein kinase A (PKA) (protein kinase A (PKA)): neither KN-93 nor KN-92 have appreciable effects
effects on protein kinase C (PKC) (protein kinase C (PKC)): neither KN-93 nor KN-92 have appreciable effects
CaM kinase inhibitory activity (CaM kinase [3]; congener used as experimental control): without CaM kinase inhibitory activity

COc1ccc(S(=O)(=O)N(CCO)c2ccccc2CN(C)CC=Cc2ccc(Cl)cc2)cc1 [KN-93, 2-[N-(2-hydroxyethyl)-N-(4-methoxy-benzenesulfonyl)]-amino-N-(4-chlorocinnamyl)-N-methylbenzylamine]
MAP duration prolongation by clofilium (isolated rabbit hearts; pretreatment 0.5 μmol/l): without reducing MAP duration prolongation
EADs in response to clofilium (hearts with EADs/hearts) (isolated rabbit hearts; [7]): 4/10
multiple EADs (hearts with multiple EADs/hearts) (isolated rabbit hearts; [7]): 1/10
left ventricular developed pressure (LVDP) following clofilium (isolated rabbit hearts; pretreatment 0.5 μmol/l): completely prevented the increase in LVDP
Ca2+-independent CaM kinase activity compared to control (CaM kinase [4]): No significant increase
apparent voltage dependence of ICa activation [2]: Neither KN-92 or KN-93 shifted
steady state inhibition of peak ICa [2]: 36.2±4.3%
peak steady state ICa inhibition relative to KN-92 ([2]; 1.0 μmol/l): more effective ICa inhibitor
effects on protein kinase A (PKA) (protein kinase A (PKA)): neither KN-93 nor KN-92 have appreciable effects
effects on protein kinase C (PKC) (protein kinase C (PKC)): neither KN-93 nor KN-92 have appreciable effects
Ki (CaM kinase [3]; read-out: reported Ki, competitive inhibition of calmodulin binding to CaM kinase): 370 nM

CCCCCCC[N+](CC)(CC)CCCCc1ccc(Cl)cc1 [clofilium]
EAD induction by clofilium in hearts without any pretreatment (isolated rabbit hearts; clofilium 7.5 μM, no pretreatment): 8/8
Ca2+-independent CaM kinase activity compared to control (CaM kinase [4]): increased significantly

KKALHAQERVDCL [SEQ ID NO: 2]
kind of EADs seen [5]: complex and repetitive
EADs induced (cells with EADs/cells) [5]: 11/15
effect on L-type calcium window current [6]: no significant effect
cells that developed inward currents (isolated heart cells): 5/6

KKALHRQEAVDCL [SEQ ID NO: 1]
kind of EADs seen [5]: only single EADs
EADs induced (cells with EADs/cells) [5]: 4/15
effect on L-type calcium window current [6]: an increase in the current was prevented
cells that developed inward currents (isolated heart cells): 0/5
IC50 (protein kinase A (PKA)): ≥ 500 µM
IC50 (protein kinase C (PKC)): ≥ 500 µM

Ryanodine
cells in which development of pacing induced inward currents was prevented (isolated heart cells; 10 μmole/l): 2/2
